Measurements as given in ChEMBL document CHEMBL1909046, “DrugMatrix in vitro pharmacology data”.

Experiments:
Cathepsin G = molecular target: T1, Cathepsin G (Homo sapiens, UniProt P08311); format: tissue-based; conditions: neutrophil;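 note: inhibition of Cathepsin G enzyme activity, tested on an AMC-conjugated peptide substrate; in other assays of this panel Not Active means under 50% inhibition at 10 µM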
T1 sequence (P08311 whole entry): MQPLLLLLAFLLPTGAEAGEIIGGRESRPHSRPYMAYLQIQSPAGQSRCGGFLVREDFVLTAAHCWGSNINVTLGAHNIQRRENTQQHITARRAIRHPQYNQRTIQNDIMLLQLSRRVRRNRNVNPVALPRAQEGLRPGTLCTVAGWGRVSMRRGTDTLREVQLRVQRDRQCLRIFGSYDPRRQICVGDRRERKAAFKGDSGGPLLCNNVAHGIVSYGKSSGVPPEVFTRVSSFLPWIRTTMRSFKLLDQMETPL

[1] = molecular target: cGMP-specific 3',5'-cyclic phosphodiesterase (Homo sapiens, UniProt O76074); test: DRUGMATRIX: Phosphodiesterase PDE5 enzyme inhibition (substrate: [3H]cGMP + cGMP); format: tissue-based, Platelet; conditions: platelet; Not Active = under 50% inhibition at 10 µM
[2] = molecular target: C-C chemokine receptor type 5 (Homo sapiens, UniProt P51681); format: cell membranes, Membrane; conditions: hek293; note: in other assays of this panel Not Active means under 50% inhibition at 10 µM
[3] = molecular target: T2, Alpha-1A adrenergic receptor (Rattus norvegicus, UniProt P43140); test: DRUGMATRIX: Alpha-1A adrenergic receptor radioligand binding (ligand: prazosin); format: cell membranes, Wistar, Submaxillary gland, Membrane; conditions: Not Active = under 50% inhibition at 10 µM
T2 sequence (P43140 whole entry): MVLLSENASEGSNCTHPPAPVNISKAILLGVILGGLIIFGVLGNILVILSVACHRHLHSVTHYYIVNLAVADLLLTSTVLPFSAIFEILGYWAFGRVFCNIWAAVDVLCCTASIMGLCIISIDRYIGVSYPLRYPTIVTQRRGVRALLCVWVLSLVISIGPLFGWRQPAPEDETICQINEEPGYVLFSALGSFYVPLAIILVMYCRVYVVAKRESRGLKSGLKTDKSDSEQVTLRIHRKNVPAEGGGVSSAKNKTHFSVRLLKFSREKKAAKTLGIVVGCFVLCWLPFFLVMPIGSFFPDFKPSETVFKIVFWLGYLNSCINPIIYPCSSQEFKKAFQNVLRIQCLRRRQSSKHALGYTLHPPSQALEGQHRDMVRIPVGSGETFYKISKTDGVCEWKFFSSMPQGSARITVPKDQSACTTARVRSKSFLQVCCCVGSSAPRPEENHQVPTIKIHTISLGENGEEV

[4] = molecular target: T3, 5-hydroxytryptamine receptor 1A (Rattus norvegicus, UniProt P19327); format: cell membranes, CHO-K1, Membrane; conditions: cho-k1; note: in other assays of this panel Not Active means under 50% inhibition at 10 µM
T3 sequence (P19327 whole entry): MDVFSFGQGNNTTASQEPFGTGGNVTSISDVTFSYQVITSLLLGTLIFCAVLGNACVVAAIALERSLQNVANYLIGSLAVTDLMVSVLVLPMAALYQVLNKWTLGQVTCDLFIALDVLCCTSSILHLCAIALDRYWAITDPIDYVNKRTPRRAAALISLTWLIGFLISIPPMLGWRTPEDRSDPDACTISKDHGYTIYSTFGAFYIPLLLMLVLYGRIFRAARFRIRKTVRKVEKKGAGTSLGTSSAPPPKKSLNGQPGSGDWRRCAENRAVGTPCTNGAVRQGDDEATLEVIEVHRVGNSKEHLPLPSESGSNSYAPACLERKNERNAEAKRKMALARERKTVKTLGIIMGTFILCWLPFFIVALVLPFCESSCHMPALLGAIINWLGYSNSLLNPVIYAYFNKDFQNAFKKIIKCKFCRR

[5] = molecular target: Tyrosine-protein kinase Fyn (Homo sapiens, UniProt P06241); test: biochemical; format: cell-based, Insect cells; conditions: insect cells;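 note: enzymatic inhibition of Fyn kinase activity measured with Poly(Glu:Tyr) as the phosphorylation substrate; in other assays of this panel Not Active means under 50% inhibition at 10 µM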
[6] = molecular target: Protein kinase C alpha type (Homo sapiens, UniProt P17252); format: cell-based; conditions: sf9
Histamine H2 receptor = Histamine H2 receptor (Homo sapiens, UniProt P25021); format: cell membranes, CHO-K1, Membrane; conditions: cho-k1; note: in other assays of this panel Not Active means under 50% inhibition at 10 µM
[7] = DRUGMATRIX: beta-Lactamase enzyme inhibition (substrate: Nitrocefin); set-up: species or system Bacillus cereus; conditions: Not Active = under 50% inhibition at 10 µM
[8] = DRUGMATRIX: ATPase, Na+/K+ enzyme inhibition (substrate: ATP); format: tissue-based, Sus scrofa, Heart; conditions: Not Active = under 50% inhibition at 10 µM
[9] = DRUGMATRIX: Calcium Channel Type L, Benzothiazepine radioligand binding (ligand: [3H] Diltiazem); format: cell membranes, Rattus norvegicus, Wistar, Brain, Membrane; conditions: Not Active = under 50% inhibition at 10 µM
[10] = molecular target: Sodium-dependent dopamine transporter (Homo sapiens, UniProt Q01959); test: DRUGMATRIX: Dopamine Transporter radioligand binding (ligand: [125I] RTI-55); format: cell membranes, CHO-K1, Membrane; conditions: cho-k1; Not Active = under 50% inhibition at 10 µM
Vasopressin V1a receptor = Vasopressin V1a receptor (Homo sapiens, UniProt P37288); format: cell membranes, Membrane; conditions: hek293; note: in other assays of this panel Not Active means under 50% inhibition at 10 µM
[11] = molecular target: T4, Alpha-1D adrenergic receptor (Homo sapiens, UniProt P25100); format: cell membranes, HEK293, Membrane; conditions: hek293; note: in other assays of this panel Not Active means under 50% inhibition at 10 µM
T4 sequence (P25100 whole entry): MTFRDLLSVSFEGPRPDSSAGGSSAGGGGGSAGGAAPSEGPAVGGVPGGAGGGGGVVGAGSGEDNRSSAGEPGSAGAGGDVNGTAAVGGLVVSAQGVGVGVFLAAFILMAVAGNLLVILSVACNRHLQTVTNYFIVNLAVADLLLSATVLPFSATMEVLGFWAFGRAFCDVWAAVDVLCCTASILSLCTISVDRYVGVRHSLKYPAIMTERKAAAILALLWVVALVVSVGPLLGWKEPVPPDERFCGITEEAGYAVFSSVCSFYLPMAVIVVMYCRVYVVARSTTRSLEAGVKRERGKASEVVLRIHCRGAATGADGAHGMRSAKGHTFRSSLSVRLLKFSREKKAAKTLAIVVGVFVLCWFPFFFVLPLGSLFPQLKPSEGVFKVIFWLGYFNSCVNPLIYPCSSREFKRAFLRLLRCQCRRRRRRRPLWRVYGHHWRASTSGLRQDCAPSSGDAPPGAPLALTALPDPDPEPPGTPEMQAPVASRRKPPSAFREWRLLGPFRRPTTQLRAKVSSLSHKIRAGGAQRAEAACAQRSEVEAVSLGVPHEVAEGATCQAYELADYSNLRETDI

C-C chemokine receptor type 5, sequence (P51681 whole entry): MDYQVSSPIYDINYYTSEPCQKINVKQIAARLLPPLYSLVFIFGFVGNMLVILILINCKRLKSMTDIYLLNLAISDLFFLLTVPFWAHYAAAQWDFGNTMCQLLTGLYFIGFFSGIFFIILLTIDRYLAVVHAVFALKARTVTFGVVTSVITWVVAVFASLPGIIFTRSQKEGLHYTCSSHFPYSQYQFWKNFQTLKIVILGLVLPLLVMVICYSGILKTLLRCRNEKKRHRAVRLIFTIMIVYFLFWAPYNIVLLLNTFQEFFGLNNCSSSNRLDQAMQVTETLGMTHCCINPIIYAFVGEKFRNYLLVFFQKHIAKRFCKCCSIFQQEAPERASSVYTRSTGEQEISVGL
Vasopressin V1a receptor, sequence (P37288 whole entry): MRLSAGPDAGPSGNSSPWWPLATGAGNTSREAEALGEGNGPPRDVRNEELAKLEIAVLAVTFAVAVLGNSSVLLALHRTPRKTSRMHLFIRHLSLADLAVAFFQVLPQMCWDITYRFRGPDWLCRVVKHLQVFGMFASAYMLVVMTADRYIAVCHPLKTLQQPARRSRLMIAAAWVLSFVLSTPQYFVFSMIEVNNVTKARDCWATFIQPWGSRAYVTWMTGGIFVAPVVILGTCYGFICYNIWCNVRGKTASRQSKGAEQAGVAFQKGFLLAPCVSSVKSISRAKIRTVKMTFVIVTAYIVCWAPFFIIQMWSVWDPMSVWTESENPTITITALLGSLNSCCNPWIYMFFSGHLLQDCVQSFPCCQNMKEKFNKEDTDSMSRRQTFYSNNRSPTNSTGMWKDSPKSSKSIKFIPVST
Sodium-dependent dopamine transporter, sequence (Q01959 whole entry): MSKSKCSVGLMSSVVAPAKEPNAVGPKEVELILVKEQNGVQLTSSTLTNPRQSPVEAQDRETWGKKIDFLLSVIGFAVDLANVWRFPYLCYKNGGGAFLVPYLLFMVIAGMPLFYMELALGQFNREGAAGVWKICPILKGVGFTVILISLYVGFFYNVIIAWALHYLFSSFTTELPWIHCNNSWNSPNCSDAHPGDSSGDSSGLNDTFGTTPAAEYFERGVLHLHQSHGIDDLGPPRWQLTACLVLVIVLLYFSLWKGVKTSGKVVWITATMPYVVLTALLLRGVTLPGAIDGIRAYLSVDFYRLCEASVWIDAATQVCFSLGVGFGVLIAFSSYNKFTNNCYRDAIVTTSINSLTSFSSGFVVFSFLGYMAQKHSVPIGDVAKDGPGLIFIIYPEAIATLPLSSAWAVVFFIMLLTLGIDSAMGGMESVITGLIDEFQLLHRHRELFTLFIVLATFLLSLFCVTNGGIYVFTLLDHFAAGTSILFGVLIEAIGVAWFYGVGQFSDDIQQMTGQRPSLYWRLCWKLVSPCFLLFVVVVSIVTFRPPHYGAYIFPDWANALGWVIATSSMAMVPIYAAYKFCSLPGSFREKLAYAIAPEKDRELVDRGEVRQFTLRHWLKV
Tyrosine-protein kinase Fyn, sequence (P06241 whole entry): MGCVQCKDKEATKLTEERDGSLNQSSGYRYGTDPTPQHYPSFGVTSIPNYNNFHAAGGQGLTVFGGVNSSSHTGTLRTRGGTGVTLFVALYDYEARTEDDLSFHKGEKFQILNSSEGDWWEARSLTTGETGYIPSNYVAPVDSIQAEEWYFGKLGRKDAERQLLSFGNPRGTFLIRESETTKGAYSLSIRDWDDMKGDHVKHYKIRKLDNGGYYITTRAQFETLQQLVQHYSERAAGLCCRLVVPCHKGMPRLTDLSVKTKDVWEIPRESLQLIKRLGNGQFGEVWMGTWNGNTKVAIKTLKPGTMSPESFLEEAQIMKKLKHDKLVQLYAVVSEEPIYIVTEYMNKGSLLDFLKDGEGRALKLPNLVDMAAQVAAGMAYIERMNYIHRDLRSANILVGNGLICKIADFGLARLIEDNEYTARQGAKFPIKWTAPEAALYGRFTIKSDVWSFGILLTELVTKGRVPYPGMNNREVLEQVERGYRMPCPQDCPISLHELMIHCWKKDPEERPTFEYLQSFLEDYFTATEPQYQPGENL
Histamine H2 receptor, sequence (P25021 whole entry): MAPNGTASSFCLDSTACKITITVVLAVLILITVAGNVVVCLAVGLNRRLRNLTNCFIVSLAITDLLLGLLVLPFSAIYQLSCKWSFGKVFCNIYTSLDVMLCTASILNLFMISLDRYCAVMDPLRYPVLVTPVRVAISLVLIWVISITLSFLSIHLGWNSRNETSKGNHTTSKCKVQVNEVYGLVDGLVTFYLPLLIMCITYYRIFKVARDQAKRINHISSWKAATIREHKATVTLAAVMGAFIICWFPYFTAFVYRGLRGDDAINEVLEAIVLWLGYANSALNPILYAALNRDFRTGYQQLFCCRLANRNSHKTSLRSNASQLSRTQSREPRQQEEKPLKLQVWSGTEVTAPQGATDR

CCc1cccc2c3c([nH]c12)C(CC)(CC(=O)O)OCC3 (stereo not drawn) [ETODOLAC]
Not Active: IC50 (Cathepsin G) | IC50 [1] | IC50 [2] | IC50 [3] | IC50 [4] | IC50 [5] | IC50 [6] | IC50 (Histamine H2 receptor) | IC50 [7] | Ki [7] | IC50 [8] | Ki [8] | IC50 [9] | Ki [9] | IC50 [10] | IC50 (Vasopressin V1a receptor) | IC50 [11]

Cc1c(-c2ccccc2)oc2c(C(=O)OCCN3CCCCC3)cccc2c1=O [FLAVOXATE]
Not Active: IC50 (Cathepsin G) | IC50 [1] | IC50 [2] | IC50 [3] | IC50 [4] | IC50 [5] | IC50 [6] | IC50 (Histamine H2 receptor) | IC50 [7] | Ki [7] | IC50 [8] | Ki [8] | IC50 [9] | Ki [9] | IC50 [10] | IC50 (Vasopressin V1a receptor) | IC50 [11]

Nc1nc(=O)[nH]cc1F [FLUCYTOSINE]
Not Active: IC50 (Cathepsin G) | IC50 [1] | IC50 [2] | IC50 [3] | IC50 [4] | IC50 [5] | IC50 [6] | IC50 (Histamine H2 receptor) | IC50 [7] | Ki [7] | IC50 [8] | Ki [8] | IC50 [9] | Ki [9] | IC50 [10] | IC50 (Vasopressin V1a receptor) | IC50 [11]

O=C1OC2(c3ccc(O)cc3Oc3cc(O)ccc32)c2ccccc21 [FLUORESCEIN]
Not Active: IC50 (Cathepsin G) | IC50 [1] | IC50 [2] | IC50 [3] | IC50 [4] | IC50 [5] | IC50 [6] | IC50 (Histamine H2 receptor) | IC50 [7] | Ki [7] | IC50 [8] | Ki [8] | IC50 [9] | Ki [9] | IC50 [10] | IC50 (Vasopressin V1a receptor) | IC50 [11]

CC(=O)[C@@]1(O)CC[C@H]2[C@@H]3C[C@H](C)C4=CC(=O)C=C[C@]4(C)[C@@]3(F)[C@@H](O)C[C@@]21C [FLUOROMETHOLONE]
Not Active: IC50 (Cathepsin G) | IC50 [1] | IC50 [2] | IC50 [3] | IC50 [4] | IC50 [5] | IC50 [6] | IC50 (Histamine H2 receptor) | IC50 [7] | Ki [7] | IC50 [8] | Ki [8] | IC50 [9] | Ki [9] | IC50 [10] | IC50 (Vasopressin V1a receptor) | IC50 [11]

O=c1[nH]cc(F)c(=O)[nH]1 [FLUOROURACIL]
Not Active: IC50 (Cathepsin G) | IC50 [1] | IC50 [2] | IC50 [3] | IC50 [4] | IC50 [5] | IC50 [6] | IC50 (Histamine H2 receptor) | IC50 [7] | Ki [7] | IC50 [8] | Ki [8] | IC50 [9] | Ki [9] | IC50 [10] | IC50 (Vasopressin V1a receptor) | IC50 [11]

CC(C)n1c(/C=C/C(O)CC(O)CC(=O)O)c(-c2ccc(F)cc2)c2ccccc21 (stereo not drawn) [FLUVASTATIN]
Not Active: IC50 (Cathepsin G) | IC50 [1] | IC50 [2] | IC50 [3] | IC50 [4] | IC50 [5] | IC50 [6] | IC50 (Histamine H2 receptor) | IC50 [7] | Ki [7] | IC50 [8] | Ki [8] | IC50 [9] | Ki [9] | IC50 [10] | IC50 (Vasopressin V1a receptor) | IC50 [11]

O=C1OCCN1/N=C/c1ccc([N+](=O)[O-])o1 [FURAZOLIDONE]
Not Active: IC50 (Cathepsin G) | IC50 [1] | IC50 [2] | IC50 [3] | IC50 [4] | IC50 [5] | IC50 [6] | IC50 (Histamine H2 receptor) | IC50 [7] | Ki [7] | IC50 [8] | Ki [8] | IC50 [9] | Ki [9] | IC50 [10] | IC50 (Vasopressin V1a receptor) | IC50 [11]

NCC1(CC(=O)O)CCCCC1 [GABAPENTIN]
Not Active: IC50 (Cathepsin G) | IC50 [1] | IC50 [2] | IC50 [3] | IC50 [4] | IC50 [5] | IC50 [6] | IC50 (Histamine H2 receptor) | IC50 [7] | Ki [7] | IC50 [8] | Ki [8] | IC50 [9] | Ki [9] | IC50 [10] | IC50 (Vasopressin V1a receptor) | IC50 [11]
